Source: US11912686B2 (Gilead Sciences, Inc., priority 2020, dated 2024)

Target: human LPAR1 (Homo sapiens (Human), UniProt Q92633)
Experiment: LPAR1 intracellular calcium mobilization assay (antagonist mode, FLIPR)
Type: cell-based
Details: CHO-K1 EDG2 cells expressing human LPAR1, LPA 18:2 at EC80 (100 nM), test compound 0.5 nM to 10 μM

Chain of human LPAR1 (Q92633 whole entry): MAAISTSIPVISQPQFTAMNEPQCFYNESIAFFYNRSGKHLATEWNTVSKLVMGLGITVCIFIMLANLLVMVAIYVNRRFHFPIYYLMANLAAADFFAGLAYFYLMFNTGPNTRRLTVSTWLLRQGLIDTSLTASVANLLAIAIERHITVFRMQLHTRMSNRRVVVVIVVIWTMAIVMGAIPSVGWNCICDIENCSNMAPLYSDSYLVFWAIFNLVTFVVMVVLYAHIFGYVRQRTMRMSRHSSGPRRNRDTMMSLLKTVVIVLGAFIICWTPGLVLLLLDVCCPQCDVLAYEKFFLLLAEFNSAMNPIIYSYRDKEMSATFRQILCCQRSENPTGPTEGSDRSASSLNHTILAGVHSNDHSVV

SMILES | EC50
C[C@@H](OC(=O)Nc1c(-c2ccc(NC(=O)[C@H]3C[C@@H]3C)cn2)nnn1C)c1cc(F)cnc1F (mixture of isomers) [Compound 207, (R)-1-(2,5-difluoropyridin-3-yl)ethyl (1-methyl-4-(5-((1RS,2RS)-2-methylcyclopropane-1-carboxamido)pyridin-2-yl)-1H-1,2,3-triazol-5-yl)carbamate] | 41.2 nM
C[C@@H](OC(=O)Nc1c(-c2ccc(NC(=O)[C@@H]3C[C@H]3CF)cn2)nnn1C)c1cc(F)cnc1F (mixture of isomers) [Compound 208, (R)-1-(2,5-difluoropyridin-3-yl)ethyl (4-(5-((1RS,2RS)-2-(fluoromethyl)cyclopropane-1-carboxamido)pyridin-2-yl)-1-methyl-1H-1,2,3-triazol-5-yl)carbamate] | 21.1 nM
C[C@@H](OC(=O)Nc1c(-c2ccc(NC(=O)[C@@H]3C[C@H]3C(F)(F)F)cn2)nnn1C)c1cc(F)cnc1F (mixture of isomers) [Compound 209, (R)-1-(2,5-difluoropyridin-3-yl)ethyl (1-methyl-4-(5-((1RS,2RS)-2-(trifluoromethyl)cyclopropane-1-carboxamido)pyridin-2-yl)-1H-1,2,3-triazol-5-yl)carbamate] | 17.7 nM
CO[C@@H]1C[C@H]1C(=O)Nc1ccc(-c2nnn(C)c2NC(=O)O[C@H](C)c2cc(F)cnc2F)nc1 (mixture of isomers) [Compound 210, (R)-1-(2,5-difluoropyridin-3-yl)ethyl (4-(5-((1RS,2RS)-2-methoxycyclopropane-1-carboxamido)pyridin-2-yl)-1-methyl-1H-1,2,3-triazol-5-yl)carbamate] | 243 nM
C[C@@H](OC(=O)Nc1c(-c2ccc(NC(=O)[C@@H]3C[C@H]3[N+](=O)[O-])cn2)nnn1C)c1cc(F)cnc1F (mixture of isomers) [Compound 211, (R)-1-(2,5-difluoropyridin-3-yl)ethyl (1-methyl-4-(5-((1RS,2RS)-2-nitrocyclopropane-1-carboxamido)pyridin-2-yl)-1H-1,2,3-triazol-5-yl)carbamate] | 37.4 nM
C[C@@H](OC(=O)Nc1c(-c2ccc(NC(=O)[C@@H]3C[C@H]3C(F)F)cn2)nnn1C)c1cc(F)cnc1F (mixture of isomers) [Compound 216, (R)-1-(2,5-difluoropyridin-3-yl)ethyl (4-(5-((1RS,2RS)-2-(difluoromethyl)cyclopropane-1-carboxamido)pyridin-2-yl)-1-methyl-1H-1,2,3-triazol-5-yl)carbamate] | 22.4 nM
C[C@@H](OC(=O)Nc1c(-c2ccc(NC(=O)[C@@H]3C[C@H]3c3ccncc3)cn2)nnn1C)c1cc(F)cnc1F (mixture of isomers) [Compound 217, (R)-1-(2,5-difluoropyridin-3-yl)ethyl (1-methyl-4-(5-((1RS,2RS)-2-(pyridin-4-yl)cyclopropane-1-carboxamido)pyridin-2-yl)-1H-1,2,3-triazol-5-yl)carbamate] | 58.1 nM
C[C@@H](OC(=O)Nc1c(-c2ccc(NC(=O)[C@@H]3C[C@H]3c3ccc(F)nc3)cn2)nnn1C)c1cc(F)cnc1F (mixture of isomers) [Compound 237, (R)-1-(2,5-difluoropyridin-3-yl)ethyl (4-(5-((1RS,2RS)-2-(6-fluoropyridin-3-yl)cyclopropane-1-carboxamido)pyridin-2-yl)-1-methyl-1H-1,2,3-triazol-5-yl)carbamate] | 19.3 nM
C[C@@H](OC(=O)Nc1c(-c2ccc(NC(=O)[C@@H]3C[C@H]3c3ccncc3Cl)cn2)nnn1C)c1cc(F)cnc1F (mixture of isomers) [Compound 238, (R)-1-(2,5-difluoropyridin-3-yl)ethyl (4-(5-((1RS,2RS)-2-(3-chloropyridin-4-yl)cyclopropane-1-carboxamido)pyridin-2-yl)-1-methyl-1H-1,2,3-triazol-5-yl)carbamate] | 52.5 nM
C[C@@H](OC(=O)Nc1c(-c2ccc(NC(=O)[C@H]3[C@H](c4ccccc4)C3(F)F)cn2)nnn1C)c1cc(F)cnc1F (mixture of isomers) [Compound 247, (R)-1-(2,5-difluoropyridin-3-yl)ethyl (4-(5-((1RS,3RS)-2,2-difluoro-3-phenylcyclopropane-1-carboxamido)pyridin-2-yl)-1-methyl-1H-1,2,3-triazol-5-yl)carbamate] | 13 nM
C[C@@H](OC(=O)Nc1c(-c2ccc(NC(=O)[C@H]3[C@H](C4CC4)C3(F)F)cn2)nnn1C)c1cc(F)cnc1F (mixture of isomers) [Compound 248, (R)-1-(2,5-difluoropyridin-3-yl)ethyl (4-(5-((1RS,2SR)-3,3-difluoro-[1,1′-bi(cyclopropane)]-2-carboxamido)pyridin-2-yl)-1-methyl-1H-1,2,3-triazol-5-yl)carbamate] | 29.8 nM
C[C@@H](OC(=O)Nc1c(-c2ccc(NC(=O)[C@@H]3C[C@H]3C#N)cn2)nnn1C)c1cc(F)cnc1Cl (mixture of isomers) [Compound 285, (R)-1-(2-chloro-5-fluoropyridin-3-yl)ethyl (4-(5-((1RS,2RS)-2-cyanocyclopropane-1-carboxamido)pyridin-2-yl)-1-methyl-1H-1,2,3-triazol-5-yl)carbamate] | 71.8 nM
C[C@@H](OC(=O)Nc1c(-c2ccc(NC(=O)[C@H]3[C@@H]4CS(=O)(=O)C[C@@H]43)cn2)nnn1C)c1cc(F)cnc1F (racemic) [Compound 229, (R)-1-(2,5-difluoropyridin-3-yl)ethyl (4-(5-((1RS,5SR,6SR)-3,3-dioxido-3-thiabicyclo[3.1.0]hexane-6-carboxamido)pyridin-2-yl)-1-methyl-1H-1,2,3-triazol-5-yl)carbamate] | 864 nM
C[C@@H](OC(=O)Nc1c(-c2ccc(NC(=O)[C@H]3[C@@H]4CC(F)(F)C[C@@H]43)cn2)nnn1C)c1cc(F)cnc1F (racemic) [Compound 230, (R)-1-(2,5-difluoropyridin-3-yl)ethyl (4-(5-((1RS,5SR,6SR)-3,3-difluorobicyclo[3.1.0]hexane-6-carboxamido)pyridin-2-yl)-1-methyl-1H-1,2,3-triazol-5-yl)carbamate] | 26.7 nM
C[C@@H](OC(=O)Nc1c(-c2ccc(NC(=O)C(F)(F)F)cc2)nnn1C)c1cccc(F)c1 [Compound 1, (R)-1-(3-fluorophenyl)ethyl (1-methyl-4-(4-(2,2,2-trifluoroacetamido)phenyl)-1H-1,2,3-triazol-5-yl)carbamate] | 6520 nM
C[C@@H](OC(=O)Nc1c(-c2ncc(NC(=O)C3(C#N)CC3)cn2)nnn1C)c1cccnc1Cl [Compound 2, [(1R)-1-(2-chloro-3-pyridyl)ethyl] N-[5-[5-[(1-cyanocyclopropanecarbonyl)amino]pyrimidin-2-yl]-3-methyl-triazol-4-yl]carbamate] | 953 nM
CNC(=O)Nc1ccc(-c2nnn(C)c2NC(=O)O[C@H](C)c2ccccc2Cl)cn1 [Compound 3] | 10000 nM
CC(=O)Nc1ccc(-c2nnn(C)c2NC(=O)O[C@H](C)c2cccnc2Cl)nc1F [Compound 5, [(1R)-1-(2-chloro-3-pyridyl)ethyl] N-[5-(5-acetamido-6-fluoro-2-pyridyl)-3-methyl-triazol-4-yl]carbamate] | 1510 nM
CC(=O)Nc1ccc(-c2nnn(C)c2NC(=O)O[C@H](C)c2cccnc2Cl)cc1 [Compound 6, (R)-1-(2-chloropyridin-3-yl)ethyl (4-(4-acetamidophenyl)-1-methyl-1H-1,2,3-triazol-5-yl)carbamate] | 1860 nM
COC(=O)Nc1ccc(-c2nnn(C)c2NC(=O)O[C@H](C)c2cccnc2Cl)cc1 [Compound 7, (R)-1-(2-chloropyridin-3-yl)ethyl (4-(4-((methoxycarbonyl)amino)phenyl)-1-methyl-1H-1,2,3-triazol-5-yl)carbamate] | 315 nM
C[C@@H](OC(=O)Nc1c(-c2cnc(NC(=O)C3(C#N)CC3)cn2)nnn1C)c1cccnc1Cl [Compound 8, (R)-1-(2-chloropyridin-3-yl)ethyl (4-(5-(1-cyanocyclopropane-1-carboxamido)pyrazin-2-yl)-1-methyl-1H-1,2,3-triazol-5-yl)carbamate] | 154 nM
CC(=O)Nc1cnc(-c2nnn(C)c2NC(=O)O[C@H](C)c2cccnc2Cl)c(F)c1 [Compound 9, (R)-1-(2-chloropyridin-3-yl)ethyl (4-(5-acetamido-3-fluoropyridin-2-yl)-1-methyl-1H-1,2,3-triazol-5-yl)carbamate] | 2700 nM
CC(=O)Nc1cnc(-c2nnn(C)c2NC(=O)O[C@H](C)c2cccnc2Cl)cc1F [Compound 10, (R)-1-(2-chloropyridin-3-yl)ethyl (4-(5-acetamido-4-fluoropyridin-2-yl)-1-methyl-1H-1,2,3-triazol-5-yl)carbamate] | 1020 nM
C[C@@H](OC(=O)Nc1c(-c2ccc(NC(=O)OC(C)(C)C)cn2)nnn1C)c1cccnc1Cl [Compound 11, (R)-1-(2-chloropyridin-3-yl)ethyl (4-(5-((tert-butoxycarbonyl)amino)pyridin-2-yl)-1-methyl-1H-1,2,3-triazol-5-yl)carbamate] | 731 nM
CC(OC(=O)Nc1c(-c2ccc(NC(=O)C(F)(F)F)cn2)nnn1C)c1cc(Br)cnc1F (stereo not shown) [Compound 12, 1-(5-bromo-2-fluoropyridin-3-yl)ethyl (1-methyl-4-(5-(2,2,2-trifluoroacetamido)pyridin-2-yl)-1H-1,2,3-triazol-5-yl)carbamate] | 541 nM
CC(OC(=O)Nc1c(-c2ccc(NC(=O)C(F)(F)F)cn2)nnn1C)c1cc(Br)cnc1Cl (stereo not shown) [Compound 13, 1-(5-bromo-2-chloropyridin-3-yl)ethyl (1-methyl-4-(5-(2,2,2-trifluoroacetamido)pyridin-2-yl)-1H-1,2,3-triazol-5-yl)carbamate] | 148 nM
CC(=O)Nc1ccc(-c2nnn(C)c2NC(=O)O[C@H](C)c2cc(Cl)cnc2F)nc1 [Compound 14, (R)-1-(5-chloro-2-fluoropyridin-3-yl)ethyl (4-(5-acetamidopyridin-2-yl)-1-methyl-1H-1,2,3-triazol-5-yl)carbamate] | 1200 nM
CC(=O)Nc1ccc(-c2nnn(C)c2NC(=O)O[C@H](C)c2cc(F)cnc2Cl)nc1 [Compound 15, (R)-1-(2-chloro-5-fluoropyridin-3-yl)ethyl (4-(5-acetamidopyridin-2-yl)-1-methyl-1H-1,2,3-triazol-5-yl)carbamate] | 452 nM
